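In this assay, cells in 96-well plates receive the compound at five concentrations for 48 hours. Endpoints are linearly interpolated between the surrounding concentrations. TGI marks complete inhibition of growth.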 A value given as a limit tells only on which side of the number the result lay.

Assay in all cases: NCI tumour cell line growth inhibition, 48 h
For experiment [1], the system named is A549 NSCLC.
For experiment [2], the system named is BT-549 breast.
In experiment [3] the test system is CAKI-1 renal.
Experiment [4] relates to CCRF-CEM leukemia.
The test system of experiment [5] is COLO 205 colon.
Experiment [6] has as its system EKVX NSCLC.
Experiment [7] deals with HCT-15 colon.
In experiment [8] the test system is KM12 colon.
The subject of experiment [9] is M14 melanoma.
The subject of experiment [10] is MCF7 breast.
Experiment [11] relates to MDA-MB-231 breast.
For experiment [12], the system named is NCI-H23 lung.
Experiment [13] deals with NCI-H460 lung.
In experiment [14] the test system is OVCAR-3 ovarian.
Experiment [15] has as its system OVCAR-5 ovarian.
The subject of experiment [16] is RPMI-8226 leukemia.
Experiment [17] relates to SF-295 CNS.
For experiment [18], the system named is SK-MEL-2 melanoma.
Experiment [19] relates to SK-MEL-5 melanoma.
The test system of experiment [20] is UO-31 renal.

As to `CS(=O)(=O)OC1CCN(C2(c3cccc(O)c3)CCCCC2)CC1`, the TGI in [1] is above 100 µM; in experiment [2], above 100 µM; in experiment [3], above 100 µM; in [4] it was 60.5 µM; in experiment [5], above 100 µM; in [6], above 100 µM. Besides, the TGI in experiment [7], in experiment [8], in experiment [9], in [10], in experiment [11] and in [12] was above 100 µM in each case. Moreover, the TGI in experiment [13] is above 100 µM; in experiment [14], above 100 µM; in experiment [15], above 100 µM; in experiment [16] it was 49 µM; in [17] it was above 100 µM; in experiment [18], above 100 µM. Also, the TGI in [19] and in experiment [20] was above 100 µM each time.

Take `CN(C)C(=O)CO/N=C1/C(c2c(O)[nH]c3ccccc23)=Nc2ccccc21`: the TGI in experiment [1], in experiment [2], in experiment [3], in experiment [4], in experiment [5] and in experiment [6] was above 100 µM each time. Moreover, the TGI in [7], in [8], in [9], in experiment [10], in [11] and in experiment [12] was above 100 µM throughout. Besides, the TGI in experiment [13], in experiment [14], in [15], in experiment [16], in [17] and in experiment [18] was above 100 µM each time. Besides, the TGI in experiment [19] and in [20] was above 100 µM throughout.

With `CC(=N\N=C\c1ccccn1)/C(C)=N/N=C/c1ccccn1`, the TGI in experiment [1], in experiment [2], in experiment [3], in experiment [4], in experiment [5] and in [6] was above 100 µM in each case. Also, the TGI in [7], in experiment [8], in [9], in [10], in experiment [11] and in experiment [12] was above 100 µM in each case. Besides, the TGI in experiment [13], in [14], in [15], in experiment [16], in experiment [17] and in [18] was above 100 µM in each case. The TGI in experiment [19] and in experiment [20] was above 100 µM in each case.

With `CCC(c1nc2ccccc2c(=O)n1NC(=O)C(C)(C)C)C1(O)CCCCC1` (stereo not given), the TGI in experiment [1], in [2], in [3], in experiment [4], in [5] and in experiment [6] was above 100 µM throughout. Further, the TGI in [7], in [8], in experiment [9], in [10], in experiment [11] and in [12] was above 100 µM in each case. Besides, the TGI in experiment [13], in experiment [14], in [15], in experiment [16], in [17] and in experiment [18] was above 100 µM throughout. The TGI in [19] and in [20] was above 100 µM each time.

For the compound `Nc1nc(SCc2ccccc2[N+](=O)[O-])c2[nH]cnc2n1`, the TGI in experiment [1] was above 100 µM; in [2], above 100 µM; in experiment [3], above 100 µM; in experiment [4], above 94.5 µM; in experiment [5], above 71.7 µM; in experiment [6], above 100 µM. Moreover, the TGI in experiment [7], in experiment [8], in experiment [9], in [10], in experiment [11] and in experiment [12] was above 100 µM in each case. Moreover, the TGI was above 76.1 µM in [13]; above 100 µM in experiment [14]; above 100 µM in [15]; above 100 µM in experiment [16]; above 100 µM in [17]; 90.3 µM in experiment [18]. The TGI in experiment [19] was 49.1 µM; in experiment [20] it was above 100 µM.

For the compound `CN(C)Cc1cc(C(=O)/C=C/c2c(F)cccc2Cl)cc(CN(C)C)c1O`, the TGI in [1] is 32.5 µM; in experiment [2], 21.8 µM; in experiment [3], 25.3 µM; in [4], 24.1 µM; in experiment [5], 24.8 µM; in experiment [6], 28.7 µM. Moreover, the TGI in experiment [7] was 19.1 µM; in [8], 30.4 µM; in [9], 30 µM; in [10], 20.2 µM; in experiment [11], 27.5 µM; in experiment [12], 38.3 µM. The TGI was found to be 11.8 µM in experiment [13]; 24.6 µM in experiment [14]; 36.2 µM in experiment [15]; 49.6 µM in experiment [16]; 25.4 µM in experiment [17]; 35.5 µM in experiment [18]. The values for the TGI in experiment [19] and in experiment [20] were 29.2 µM and 18.7 µM, respectively.

Turning to `CCC(=O)n1c(=O)n(-c2ccc([N+](=O)[O-])cc2)c(=O)n1C(=O)CC`, the TGI in [1], in [2], in experiment [3], in experiment [4], in experiment [5] and in experiment [6] was above 100 µM throughout. The TGI in [7], in [8], in [9], in [10], in [11] and in experiment [12] was above 100 µM each time. The TGI in [13], in experiment [14], in [15], in [16], in experiment [17] and in experiment [18] was above 100 µM each time. Moreover, the TGI in [19] and in experiment [20] was above 100 µM throughout.

Source of the values: PubChem BioAssay (NCI).
